Experimental data: ChEMBL document CHEMBL1133959, “Syntheses and preliminary pharmacological evaluation of the two epimers of the 5-F2t-isoprostane” (2001)
Active and inactive are the calls of the source. No cut-off for these calls is given here.

Key:
Format in all cases: functional
Rattus norvegicus [1] = species: Rattus norvegicus; test: Compound was tested for maximal contraction of rat thoracic aorta
Rattus norvegicus [2] = species: Rattus norvegicus; test: Effect of compound on rat thoracic aorta constriction in rat
Rattus norvegicus [3] = species: Rattus norvegicus; test: Effect of compound on rat thoracic aorta constriction in rat at 10e-5 M concentration; No effect

**Q.** Which results are given for `CCCCC[C@H](O)/C=C/[C@H]1C2CC(CO2)[C@@H]1C/C=C\CCCC(=O)O` (some centres undefined)?
**A.** Emax (Rattus norvegicus [1]): 189%; pD2 (Rattus norvegicus [2]): 7.8

**Q.** `CCCCC/C=C\C[C@@H]1[C@H](/C=C/[C@H](O)CCCC(=O)OC)[C@@H](O)C[C@H]1O` was tested. Which pD2 (Rattus norvegicus [3]) did it give?
**A.** inactive

**Q.** `CCCCC/C=C\C[C@@H]1[C@H](/C=C/[C@@H](O)CCCC(=O)OC)[C@@H](O)C[C@H]1O` was tested. Which pD2 (Rattus norvegicus [3]) did it give?
**A.** inactive
